PubChem BioAssay (NCI)
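These data come from cells grown in 96-well plates and exposed to compound for 48 hours at five concentrations. The concentration for 50% growth inhibition is given as GI50. The concentration for full growth arrest is given as TGI.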

How the values were obtained:
Experiment in all cases: NCI-60 cell line screen, 48 h
786-0 renal = system: 786-0 renal
A498 renal = system: A498 renal
A549 NSCLC = system: A549 NSCLC
ACHN renal = system: ACHN renal
BT-549 breast = system: BT-549 breast
CAKI-1 renal = system: CAKI-1 renal
CCRF-CEM leukemia = system: CCRF-CEM leukemia
COLO 205 colon = system: COLO 205 colon
DU-145 prostate = system: DU-145 prostate
EKVX NSCLC = system: EKVX NSCLC
HCC-2998 colon = system: HCC-2998 colon
HCT-116 colon = system: HCT-116 colon
HCT-15 colon = system: HCT-15 colon
HL-60(TB) leukemia = system: HL-60(TB) leukemia
HOP-62 NSCLC = system: HOP-62 NSCLC
HOP-92 NSCLC = system: HOP-92 NSCLC
HS 578T breast = system: HS 578T breast
HT29 colon = system: HT29 colon
IGROV1 ovarian = system: IGROV1 ovarian
K-562 leukemia = system: K-562 leukemia
KM12 colon = system: KM12 colon
LOX IMVI melanoma = system: LOX IMVI melanoma
M14 melanoma = system: M14 melanoma
MALME-3M melanoma = system: MALME-3M melanoma
MCF7 breast = system: MCF7 breast
MDA-MB-231 breast = system: MDA-MB-231 breast
MDA-MB-435 = system: MDA-MB-435
MOLT-4 leukemia = system: MOLT-4 leukemia
NCI-H226 lung = system: NCI-H226 lung
NCI-H23 lung = system: NCI-H23 lung
NCI-H460 lung = system: NCI-H460 lung
NCI-H522 lung = system: NCI-H522 lung
NCI/ADR-RES ovarian = system: NCI/ADR-RES ovarian
OVCAR-3 ovarian = system: OVCAR-3 ovarian
OVCAR-4 ovarian = system: OVCAR-4 ovarian
OVCAR-5 ovarian = system: OVCAR-5 ovarian
OVCAR-8 ovarian = system: OVCAR-8 ovarian
PC-3 prostate = system: PC-3 prostate
RPMI-8226 leukemia = system: RPMI-8226 leukemia
RXF 393 renal = system: RXF 393 renal
SF-268 CNS = system: SF-268 CNS
SF-295 CNS = system: SF-295 CNS
SF-539 CNS = system: SF-539 CNS
SK-MEL-2 melanoma = system: SK-MEL-2 melanoma
SK-MEL-28 melanoma = system: SK-MEL-28 melanoma
SK-MEL-5 melanoma = system: SK-MEL-5 melanoma
SK-OV-3 ovarian = system: SK-OV-3 ovarian
SN12C renal = system: SN12C renal
SNB-19 CNS = system: SNB-19 CNS
SNB-75 CNS = system: SNB-75 CNS
SR leukemia = system: SR leukemia
SW-620 colon = system: SW-620 colon
T-47D breast = system: T-47D breast
TK-10 renal = system: TK-10 renal
U251 CNS = system: U251 CNS
UACC-257 melanoma = system: UACC-257 melanoma
UACC-62 melanoma = system: UACC-62 melanoma
UO-31 renal = system: UO-31 renal

Molecule COc1cc2c(F)nccc2cc1C(=O)N[C@@H](c1ccc(F)c(Cl)c1)[C@@H]1C[C@@H](O)CN1 has a GI50 (786-0 renal) of 0.076 µM, a TGI (786-0 renal) of 11.5 µM and a GI50 (A498 renal) of 0.0301 µM. The TGI (A498 renal) was 1.89 µM, the GI50 (A549 NSCLC) was 3.14 µM and the TGI (A549 NSCLC) was 39.6 µM. The GI50 (ACHN renal) was 9.59 µM, the TGI (ACHN renal) was 22.3 µM and the GI50 (BT-549 breast) was 0.487 µM. The TGI (BT-549 breast) was 4.81 µM, the GI50 (CAKI-1 renal) was 0.355 µM and the TGI (CAKI-1 renal) was 14.6 µM. The GI50 (CCRF-CEM leukemia) was 0.299 µM, the TGI (CCRF-CEM leukemia) was greater than 42 µM and the GI50 (COLO 205 colon) was 3.1 µM. For the same molecule, the TGI (COLO 205 colon) was 19.4 µM, the GI50 (DU-145 prostate) was 6.84 µM and the TGI (DU-145 prostate) was 24 µM. The GI50 (EKVX NSCLC) was 2.02 µM, the TGI (EKVX NSCLC) was 17.8 µM and the GI50 (HCC-2998 colon) was 0.875 µM. The TGI (HCC-2998 colon) was 19.5 µM, the GI50 (HCT-116 colon) was 3.31 µM and the TGI (HCT-116 colon) was 17.2 µM. It also gave a GI50 (HCT-15 colon) of 0.838 µM, a TGI (HCT-15 colon) of 16.4 µM and a GI50 (HL-60(TB) leukemia) of 2.11 µM. The TGI (HL-60(TB) leukemia) was 5.61 µM, the GI50 (HOP-62 NSCLC) was 7.09 µM and the TGI (HOP-62 NSCLC) was 25.3 µM. The GI50 (HOP-92 NSCLC) was 0.291 µM, the TGI (HOP-92 NSCLC) was 7.83 µM and the GI50 (HS 578T breast) was 0.0715 µM. For the same molecule, the TGI (HS 578T breast) was 2.41 µM, the GI50 (HT29 colon) was 2.35 µM and the TGI (HT29 colon) was 19.6 µM. The GI50 (IGROV1 ovarian) was 0.0573 µM, the TGI (IGROV1 ovarian) was 11.4 µM and the GI50 (K-562 leukemia) was 3.87 µM. For the same molecule, the TGI (K-562 leukemia) was greater than 78.4 µM, the GI50 (KM12 colon) was 1.69 µM and the TGI (KM12 colon) was 19.3 µM. It also gave a GI50 (LOX IMVI melanoma) of 10.2 µM, a TGI (LOX IMVI melanoma) of 22.4 µM and a GI50 (M14 melanoma) of 10.5 µM. For the same molecule, the TGI (M14 melanoma) was 23.2 µM, the GI50 (MALME-3M melanoma) was 0.716 µM and the TGI (MALME-3M melanoma) was 15.4 µM. For the same molecule, the GI50 (MCF7 breast) was 0.575 µM, the TGI (MCF7 breast) was 12.1 µM and the GI50 (MDA-MB-231 breast) was 11.3 µM. The TGI (MDA-MB-231 breast) was 25 µM, the GI50 (MDA-MB-435) was 2 µM and the TGI (MDA-MB-435) was 17 µM. It also gave a GI50 (MOLT-4 leukemia) of 0.188 µM, a TGI (MOLT-4 leukemia) greater than 41.6 µM and a GI50 (NCI-H226 lung) of 5.99 µM. The TGI (NCI-H226 lung) was 24.4 µM, the GI50 (NCI-H23 lung) was 11.1 µM and the TGI (NCI-H23 lung) was 26 µM. It also gave a GI50 (NCI-H460 lung) of 0.623 µM, a TGI (NCI-H460 lung) of 15.8 µM and a GI50 (NCI-H522 lung) of 12 µM. The TGI (NCI-H522 lung) was 26.7 µM, the GI50 (NCI/ADR-RES ovarian) was 14 µM and the TGI (NCI/ADR-RES ovarian) was 47 µM. For the same molecule, the GI50 (OVCAR-3 ovarian) was 8.43 µM, the TGI (OVCAR-3 ovarian) was 24.7 µM and the GI50 (OVCAR-4 ovarian) was 8.59 µM. The TGI (OVCAR-4 ovarian) was 24.6 µM, the GI50 (OVCAR-5 ovarian) was 13.1 µM and the TGI (OVCAR-5 ovarian) was 45.6 µM. The GI50 (OVCAR-8 ovarian) was 13.2 µM, the TGI (OVCAR-8 ovarian) was 28.9 µM and the GI50 (PC-3 prostate) was 0.54 µM. For the same molecule, the TGI (PC-3 prostate) was greater than 43.3 µM, the GI50 (RPMI-8226 leukemia) was 7.72 µM and the TGI (RPMI-8226 leukemia) was 40.1 µM. The GI50 (RXF 393 renal) was 0.0362 µM, the TGI (RXF 393 renal) was 0.268 µM and the GI50 (SF-268 CNS) was 3.64 µM. For the same molecule, the TGI (SF-268 CNS) was 21.6 µM, the GI50 (SF-295 CNS) was 0.131 µM and the TGI (SF-295 CNS) was 13.2 µM. The GI50 (SF-539 CNS) was 0.0677 µM, the TGI (SF-539 CNS) was 11.1 µM and the GI50 (SK-MEL-2 melanoma) was 11.4 µM. For the same molecule, the TGI (SK-MEL-2 melanoma) was 25.2 µM, the GI50 (SK-MEL-28 melanoma) was 4.48 µM and the TGI (SK-MEL-28 melanoma) was 20.2 µM. The GI50 (SK-MEL-5 melanoma) was 14.7 µM, the TGI (SK-MEL-5 melanoma) was 28.1 µM and the GI50 (SK-OV-3 ovarian) was 0.268 µM. The TGI (SK-OV-3 ovarian) was 13.7 µM, the GI50 (SN12C renal) was 8.08 µM and the TGI (SN12C renal) was 22.2 µM. For the same molecule, the GI50 (SNB-19 CNS) was 0.847 µM, the TGI (SNB-19 CNS) was 18.5 µM and the GI50 (SNB-75 CNS) was 0.074 µM. For the same molecule, the TGI (SNB-75 CNS) was 1.51 µM, the TGI (SR leukemia) was greater than 41.9 µM and the GI50 (SW-620 colon) was 6.39 µM. For the same molecule, the TGI (SW-620 colon) was 23.6 µM, the GI50 (T-47D breast) was 0.0552 µM and the TGI (T-47D breast) was 21.3 µM. It also gave a GI50 (TK-10 renal) of 0.279 µM, a TGI (TK-10 renal) of 14.1 µM and a GI50 (U251 CNS) of 1.49 µM. For the same molecule, the TGI (U251 CNS) was 17.8 µM, the GI50 (UACC-257 melanoma) was 1.33 µM and the TGI (UACC-257 melanoma) was 19.6 µM. The GI50 (UACC-62 melanoma) was 0.514 µM, the TGI (UACC-62 melanoma) was 16.9 µM and the GI50 (UO-31 renal) was 0.491 µM. It also gave a TGI (UO-31 renal) of 15.4 µM.
